Assay results as given in patent US6737397B1, “Control of cancer growth through the interaction of [MET5]-enkephalin and the zeta receptor” (The Penn State Research Foundation, priority 1996, dated 2004).
Values joined by “and” are separate entries in the source; they are usually repeats but may differ in a detail not shown here. Equal entries are not always repeated. Where two headings read alike, the source gives them in different places. Marks after values point to notes of the source that are not given here.

How the values were obtained:
[1] = target: T1, [Met5]-enkephalin receptor (Homo sapiens, UniProt Q9NZT2); assay: [3H]-[Met5]-enkephalin binding on HT-29 cells after 48 h exposure to OGF or NTX (receptor regulation)
T1 construct: endogenous in cells; host or cells: HT-29 human colon cancer cells, log phase, nuclear pellet (P1)
T1 sequence (Q9NZT2 1-677): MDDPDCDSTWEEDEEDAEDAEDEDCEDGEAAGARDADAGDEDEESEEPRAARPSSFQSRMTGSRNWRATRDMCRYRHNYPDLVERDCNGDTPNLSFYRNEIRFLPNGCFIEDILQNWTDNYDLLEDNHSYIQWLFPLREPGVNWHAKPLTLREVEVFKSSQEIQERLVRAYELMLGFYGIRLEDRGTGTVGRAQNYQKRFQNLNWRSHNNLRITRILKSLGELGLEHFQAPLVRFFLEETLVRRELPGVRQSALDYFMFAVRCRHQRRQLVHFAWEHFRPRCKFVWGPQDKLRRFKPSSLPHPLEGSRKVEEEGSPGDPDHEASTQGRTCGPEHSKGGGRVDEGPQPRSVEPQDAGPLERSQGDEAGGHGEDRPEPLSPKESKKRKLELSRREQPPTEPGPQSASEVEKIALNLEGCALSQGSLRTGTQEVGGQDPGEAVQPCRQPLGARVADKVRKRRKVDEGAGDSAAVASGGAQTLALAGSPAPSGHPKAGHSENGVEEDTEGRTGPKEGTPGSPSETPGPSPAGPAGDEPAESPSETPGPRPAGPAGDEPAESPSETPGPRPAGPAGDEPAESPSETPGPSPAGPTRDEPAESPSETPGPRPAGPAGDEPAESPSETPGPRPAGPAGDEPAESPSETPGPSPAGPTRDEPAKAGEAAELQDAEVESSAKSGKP
Description: Log phase cells were incubated in 0.05% trypsin for at least 30 min with gentle agitation at 37° C. in order to reduce clumping of cells and facilitate isolation of cell nuclei. Preparations were homogenized (Polytron, setting 6, 2×10 sec) in a 1:20 (wt/vol) solution (=Tris/all) of cold 50 mM Tris HCl buffer with 0.1 mg/ml bacitracin, 1 μg/ml leupeptin, 60 nM thiorphan, 1 mM EGTA, and 0.6 mg/l PMSF, pH 7.4, at 4° C. […] Protein homogenates of P1 were diluted with Tris/all and incubated at room temperature (22° C.) for 20 min to remove endogenous opioid peptides.
The final volume of the incubation mixture was 1 ml. The incubation was terminated by rapid filtration through Whatman GF-B filters under vacuum pressure with a Brandel Cell Harvester. Filters were rinsed three times with 5 ml volumes of ice-cold 50 mM Tris buffer, dried at 60° C. for 1 hour, and counted in a 2:1 solution of Aquasol-toluene by liquid scintillation spectrometry (Beckman LS-2800). […] Duplicate tubes of homogenates were assayed for each-concentration utilized. Protein concentrations were determined by the BioRad method with gamma globulin as a standard.

ζ-opioid receptor [2] = target: T2, ζ-opioid receptor (Homo sapiens, UniProt Q9NZT2); assay: Competition for binding of [3H][Met5]enkephalin (4.0 nM) in nuclear homogenates of HT-29 human colon tumors; design: from tissue; host or cells: HT-29 human colon tumor xenografts grown in athymic nude mice; nuclear (P1) and other subcellular fractions
T2 sequence (Q9NZT2 1-677): T1 sequence (Q9NZT2 1-677)

HT-29 cells = assay: Growth assay (cell counts) of HT-29 human colon cancer cells in culture; type: cell-based
Description: In some examples, cultures of HT-29 cells were maintained in McCoy's 5A media without fetal calf serum.
(§1) Cells were seeded at equivalent amounts into 75 cm^2 flasks or into 9.6 cm^2 wells (6-well plates, Falcon) and were counted 24 hr later to determine plating efficiency. Drugs or sterile water were added beginning 24 hr after seeding (=0 hours) and both media and drugs were changed daily. All drugs were prepared in sterile water and dilutions represent final concentrations of the compounds. At appropriate times, cells were harvested with 0.05% trypsin/0.53 mM EDTA, centrifuged, and counted with a hemacytometer at 200×. Cell viability was determined by trypan blue staining. At least 2 aliquots/flask or well were counted and 2 flasks or wells/time point/treatment group were sampled.

[3] = test system: HT-29 human colon cancer cells; assay: HT-29 human colon cancer xenografts in nude mice treated with OGF and/or naloxone
ζ opioid receptor = ζ opioid receptor (Homo sapiens, UniProt Q9NZT2)
Description: Receptor binding assays were performed according to procedures reported elsewhere [8] with some slight modifications. […] Six assays were performed to establish binding kinetics in control tumor tissue, whereas three independent assays were conducted on tumors from mice for comparison of OGF and control groups.
Receptor binding data were analyzed with a Lundon 1 (Saturation Isotherm Binding Analysis) computer program (Lundon Software, Chagrin Falls, Ohio) and Prism Software (San Diego, Calif.). Both analyses utilized non-linear least-squares regression. Saturation curves and Scatchard plots were computed directly by these programs.
Mean binding affinities and capacities for tumor tissue from animals in the OGF and control groups were compared using analysis of variance and Newman-Keuls tests.

[4] = test system: BxPC-3 human pancreatic tumor cells; assay: BxPC-3 human pancreatic tumor xenografts in nude mice treated with OGF; type: in vivo
Description: BxPC-3 human pancreatic cancer cells, purchased from the American Type Culture Collection (Rockville, Md.), were grown in RPMI media containing 10% fetal calf serum, penicillin (10 units/ml), and streptomycin (100 μg/ml) in an atmosphere of 93% air and 7% CO2 at 37° C. Cell viability was determined by the trypan blue exclusion test. Three-to-4-week-old male athymic nude mice, obtained from Charles River Laboratories (Wilmington, Mass.), were injected subcutaneously over the right shoulder with BxPC-3 cells (log phase) in a 0.5 ml suspension of RPMI media. The day of tumor cell inoculation was considered day 0. Mice were evaluated daily and the date that the tumor became ‘visible’ was recorded. Individual tumors were measured with vernier calipers every 2 days. Measurements of the largest perpendicular dimensions were recorded and tumor volume was calculated using the formula: length×width^2×0.5[25]. The time of ‘initial’ appearance of a tumor wag considered to be the day when tumor volume was 5 mm^3 of greater. All mice were euthanized and necropsied 30 days after tumor cell inoculation. Tumor tissues for receptor binding assays, radioimmunoassays, and immunocytochemistry were rapidly frozen in liquid nitrogen and stored at −70° C. until assayed.
Drug treatment was initiated on the day of tumor cell inoculation. […] Injections were administered in the right or left flank. Animals were weighed weekly and appropriate dosage adjustments made.
The latencies for visible and initial tumor appearance, as well as the appearance of a tumor volume measuring 62.5 mm^3 (when each perpendicular measurement was 5 mm), were recorded.
Latencies for visible and initial appearance as well as tumors ≧62.5 mm were analyzed using one way analysis of variance; subsequent comparisons were made with the Newman-Keuls tests. The number of mice with initial tumor appearance on selected days was expressed as a ratio of the total number of mice in the group, and comparisons of percentages were made with chi-square tests.

COLO 205 cells = assay: Growth assay (cell counts) of COLO 205 human colon cancer cells; type: cell-based; details: 10^−6 M, 48 hr
Description: (§2) HT-29, WiDr, and COLO 205 cell lines were obtained from the American Type Culture Collection (Rockville, Md.). HT-29 cells were grown in McCoy's 5A media (modified), WiDr cells in Minimum Essential Media, and COLO 205 cells in RPMI 1640 media; all media contained 10% fetal calf serum, 2 mM […], 1.2% sodium bicarbonate and antibiotics (11 Units/ml penicillin, 10 μg/ml streptomycin, 10 μg/ml neomycin) in a humidified atmosphere of 7% CO2/93% air at 37° C. In some examples, cultures of HT-29 cells were maintained in McCoy's 5A media without fetal calf serum.
as §1
(§3) To examine the ubiquity of opioid activity with respect to colon cancer, two other colon cancer cell lines were investigated: COLO 205 and WiDr.

WiDr cells = assay: Growth assay (cell counts) of WiDr human colon cancer cells; type: cell-based; details: 10^−6 M, 48 hr
Description: as §2, §1, §3

ζ-opioid receptor [5] = target: T2, ζ-opioid receptor; details: nuclear preparation of cultured HT-29 cells
ζ-opioid receptor [6] = target: T2, ζ-opioid receptor; details: for Bmax, fmol/mg protein: subcellular fractionation, P1 nuclear fraction
ζ-opioid receptor [7] = target: T2, ζ-opioid receptor
ζ-opioid receptor [8] = target: T2, ζ-opioid receptor; assay: Effect of cations and guanyl nucleotides on [3H]-[Met5]-enkephalin binding to HT-29 nuclear homogenates; design: from tissue; host or cells: HT-29 human colon tumor xenografts grown in athymic nude mice; nuclear (P1) and other subcellular fractions; details: 5, 100, 200, or 500 μM
Description: Histograms represent the percent of specific binding±SE.

μ-opioid receptor = target: T3, μ-opioid receptor (Homo sapiens, UniProt P35372); assay: [3H]DAMGO binding to HT-29 nuclear (P1) and membrane (P2) homogenates; details: P2 fraction
T3 construct: from tissue; host or cells: HT-29 human colon tumor xenografts from nude mice; nuclear (P1) and membrane (P2) homogenates
T3 sequence (P35372 whole entry): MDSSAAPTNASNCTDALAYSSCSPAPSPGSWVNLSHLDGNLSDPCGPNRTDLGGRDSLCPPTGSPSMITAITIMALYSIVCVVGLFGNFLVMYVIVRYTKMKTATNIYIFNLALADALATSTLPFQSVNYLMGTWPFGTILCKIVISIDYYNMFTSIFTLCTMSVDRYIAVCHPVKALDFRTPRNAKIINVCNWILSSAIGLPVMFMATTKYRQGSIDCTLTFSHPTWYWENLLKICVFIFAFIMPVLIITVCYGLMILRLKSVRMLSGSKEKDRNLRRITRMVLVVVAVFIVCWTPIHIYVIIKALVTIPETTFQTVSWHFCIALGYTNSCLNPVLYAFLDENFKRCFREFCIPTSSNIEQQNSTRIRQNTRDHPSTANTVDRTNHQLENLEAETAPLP

[9] = 5 mg/kg OGF three times daily s.c.

[Met^5]-enkephalin
Bmax of [3H]-[Met5]-enkephalin ([1]; HT-29 cells after 48 h of exposure to the treatment): 18.6 ± 1.1 | Bmax reduced versus control cells ([1]; chronic exposure (48 h)): 50% | greater ability to displace [3H]-[Met5]-enkephalin than the next ranking compound (ζ-opioid receptor [2]): 2.3 fold | cell number greater after removal than in cultures maintained with peptide (HT-29 cells): more than 80% | cell number versus controls (HT-29 cells): comparable to controls | decrease in cell number from control values (HT-29 cells): 35% | effect on cell growth in serum-free media (HT-29 cells): inhibitory effect on cell growth | more cells after removal than in cultures continuing to receive peptide (HT-29 cells): 37% | reduction in number of colon cancer cells (HT-29 cells): 41% and 56% | Latency for measurable tumor appearance ([3]; 0.5 mg/kg daily): 28.0 ± 0.0 days | Latency for measurable tumor appearance, days, range ([3]; 0.5 mg/kg daily): (28) days | Latency for palpable tumor ([3]; 0.5 mg/kg daily): 18.6 ± 3.2 days | Latency for visible tumor ([3]; 0.5 mg/kg daily): 22.4 ± 2.6 days | No. of mice with tumors 21 days after inoculation ([3]; 0.5 mg/kg daily): 2/14† | No. of mice with tumors 50 days after inoculation ([3]; 0.5 mg/kg daily): 7/14* | Latency for measurable tumor appearance ([3]; 5 mg/kg daily): 22.2 ± 2.3 days | Latency for measurable tumor appearance, days, range ([3]; 5 mg/kg daily): (13-22) days | Latency for palpable tumor ([3]; 5 mg/kg daily): 19.2 ± 2.2 days | Latency for visible tumor ([3]; 5 mg/kg daily): 20.2 ± 2.2 days | No. of mice with tumors 21 days after inoculation ([3]; 5 mg/kg daily): 4/14† | No. of mice with tumors 50 days after inoculation ([3]; 5 mg/kg daily): 6/14† | Latency for measurable tumor appearance ([3]; 25 mg/kg daily): 24.0 ± 4.5 days | Latency for measurable tumor appearance, days, range ([3]; 25 mg/kg daily): (12-32) days | Latency for palpable tumor ([3]; 25 mg/kg daily): 22.0 ± 4.5 days | Latency for visible tumor ([3]; 25 mg/kg daily): 23.0 ± 4.5 days | No. of mice with tumors 21 days after inoculation ([3]; 25 mg/kg daily): 2/14† | No. of mice with tumors 50 days after inoculation ([3]; 25 mg/kg daily): 6/14† | animals with a tumor ([3]; 50 days after inoculation, 0.5, 5, or 25 mg/kg OGF): 36-50% | mice that never developed xenografts of colon cancer ([3]; all OGF doses, 7-wk experimental period): 57% | mice with a measurable tumor ([3]; by day 21, 0.5, 5, or 25 mg/kg OGF): 14-28% | dose-response of tumor incidence and delay in oncogenesis ([3]; mouse, in vivo): no distinct dose-response effect | binding affinity versus control group (ζ opioid receptor; tumors from OGF-treated mice): did not differ | binding sites reduced from control levels (ζ opioid receptor; tumors from OGF-treated mice): 58% | Bmax, fmol/mg protein (ζ opioid receptor; tumors from mice treated with 5 mg/kg OGF three times daily): 24.6 ± 5.2 fmol/mg protein | Number of mice with tumors 7 days after tumor cell inoculation ([4]; 5 mg/kg OGF three times daily): 0/13* | Number of mice with tumors 14 days after tumor cell inoculation ([4]; 5 mg/kg OGF three times daily): 5/13* | Number of mice with tumors 15 days after tumor cell inoculation ([4]; 5 mg/kg OGF three times daily): 8/13* | Number of mice with tumors 22 days after tumor cell inoculation ([4]; 5 mg/kg OGF three times daily): 12/13 | Number of mice with tumors 30 days after tumor cell inoculation ([4]; 5 mg/kg OGF three times daily): 12/13 | interval from inoculation to initial tumor appearance longer than sterile water ([4]; 5 mg/kg OGF three times daily): 43% | latency until tumor reached 62.5 mm^3 longer than control group ([4]; 5 mg/kg OGF three times daily): ~41% | visible tumors developed later than controls ([4]; 5 mg/kg OGF three times daily): more than 3 days | Latency (days) for tumors of 62.5 mm^3 in size [4, 9]: 17.2 ± 1.1 days | Latency (days) for visible tumor [4, 9]: 12.7 ± 1.4 days | Latency (days) for initial tumor appearance ([4]; 5 mg/kg OGF three times daily s.c., listed as OGF): 15.2 days and 15.2 ± 1.2 days | animals without a neoplasia ([4]; day 15): ~40% | mice with a tumor measuring ≧5 mm^3 ([4]; fifteen days after tumor cell inoculation): less than 62% | mean tumor volumes versus control group ([4]; within the 30 days of the experiment): no significant differences | fewer cells than control cultures (COLO 205 cells): 58% | fewer cells than control cultures (WiDr cells): 41%

[^3H]-[Met^5]-enkephalin
binding capacity (Bmax) (ζ opioid receptor; tumor tissue from control animals): 46.8±4.0 fmol/mg protein | binding capacity (Bmax) (ζ-opioid receptor [5]): 43 fmol/mg protein | mean binding capacity (Bmax) (ζ-opioid receptor [6]; P1 nuclear homogenates of HT-29 tumors, 150 min, 22° C., pH 7.4): 364.8±25.7 fmol/mg protein | Bmax, fmol/mg protein (ζ-opioid receptor [6]): 256.0±12.6 fmol/mg protein | Bmax, fmol/mg protein (ζ-opioid receptor [6]; listed as [^3H][Met^5]enkephalin): 256.0 ± 12.6 fmol/mg protein | Bmax, fmol/mg protein (ζ-opioid receptor [7]; Patient 1, splenic flexure adenocarcinoma): 34.3 ± 9.0 fmol/mg protein | Bmax, fmol/mg protein (ζ-opioid receptor [7]; Patient 2, sigmoid adenocarcinoma): 32.7 ± 1.4 fmol/mg protein | mean binding capacity (Bmax) (ζ-opioid receptor [7]; data from both patients averaged): 33.5±4.1 fmol/mg protein

Nc1nc2c(ncn2C2OC(COP(=O)([O-])OP(=O)([O-])NP(=O)([O-])[O-])C(O)C2O)c(=O)[nH]1.[Li+].[Li+].[Li+].[Li+] (stereo not drawn) [GppNHp, guanylyl-imidodiphosphate (GppNHp) tetralithium salt]
effect on binding of [3H]-[Met5]-enkephalin (ζ-opioid receptor [8]): not markedly reduced

C[C@@H](NC(=O)[C@@H](N)Cc1ccc(O)cc1)C(=O)NCC(=O)N(C)[C@@H](Cc1ccccc1)C(=O)NCCO [[3H]DAMGO]
Bmax, fmol/mg protein (μ-opioid receptor): 20.9 ± 4.8 fmol/mg protein
